Laboratory results: ChEMBL document CHEMBL1697781, “Assessment of the health effects of chemicals in humans: II. Construction of an adverse effects database for QSAR modeling” (Curr Drug Discov Technol, 2004)

Assays:
Conditions in all cases: human; call rule not given here
Hepatotoxicity [1] = assay: FDA HLAED, liver enzyme composite activity
Hepatotoxicity [2] = assay: FDA HLAED, alkaline phosphatase increase
Hepatotoxicity [3] = assay: FDA HLAED, serum glutamic oxaloacetic transaminase (SGOT) increase
Hepatotoxicity [4] = assay: FDA HLAED, serum glutamic pyruvic transaminase (SGPT) increase
Hepatotoxicity [5] = assay: FDA HLAED, lactate dehydrogenase (LDH) increase
Hepatotoxicity [6] = assay: FDA HLAED, gamma-glutamyl transferase (GGT) increase
Wherever GGT Increase - Index Value is given: reference of the scale not given here.
Wherever LDH Increase - Index Value is given: reference of the scale not given here.

| SMILES | Composite Activity - Active (Hepatotoxicity [1]; Liver) | Composite Activity - Marginal (Hepatotoxicity [1]; Liver) | Alkaline Phosphatase Increase - Activity Score (Hepatotoxicity [2]) | Alkaline Phosphatase Increase - Index Value (Hepatotoxicity [2]) | Alkaline Phosphatase Increase - Number of Reports (Hepatotoxicity [2]) | SGOT Increase - Activity Score (Hepatotoxicity [3]) | SGOT Increase - Index Value (Hepatotoxicity [3]) | SGOT Increase - Number of Reports (Hepatotoxicity [3]) | SGPT Increase - Activity Score (Hepatotoxicity [4]) | SGPT Increase - Index Value (Hepatotoxicity [4]) | SGPT Increase - Number of Reports (Hepatotoxicity [4]) | LDH Increase - Activity Score (Hepatotoxicity [5]) | LDH Increase - Index Value (Hepatotoxicity [5]) | LDH Increase - Number of Reports (Hepatotoxicity [5]) | GGT Increase - Activity Score (Hepatotoxicity [6]) | GGT Increase - Index Value (Hepatotoxicity [6]) | GGT Increase - Number of Reports (Hepatotoxicity [6]) | Composite Activity - Active (Hepatotoxicity [1]) | Composite Activity - Marginal (Hepatotoxicity [1]) | Composite Activity - Score (Hepatotoxicity [1]) | also measured |
| --- | --- | --- | --- | --- | --- | --- | --- | --- | --- | --- | --- | --- | --- | --- | --- | --- | --- | --- | --- | --- | --- |
| COc1ccc2cc([C@H](C)C(=O)O)ccc2c1 [NAPROXEN] | 0 | 0 | Inactive | 0.1 | < 4 | Inactive | 0.1 | >= 4 | Inactive | 0 | < 4 | Inactive | 0 | < 4 | Inactive | 0.1 | < 4 |  |  |  | Composite Activity - Score (Hepatotoxicity [1]; Liver): Inactive |
| CCOC(=O)/C=C(C)/C=C/C=C(C)/C=C/c1c(C)cc(OC)c(C)c1C [ETRETINATE] |  |  | Active | 5.3 | >= 4 | Active | 5.3 | >= 4 | Marginally Active | 3.2 | >= 4 | Inactive | 2.9 | >= 4 | Inactive | 0.6 | < 4 | 2 | 1 | Active |  |
| CCn1cc(C(=O)O)c(=O)c2cc(F)c(N3CCNCC3)cc21 [NORFLOXACIN] | 2 | 2 | Active | 6.3 | >= 4 | Active | 5.6 | >= 4 | Marginally Active | 3 | >= 4 | Marginally Active | 3.7 | >= 4 | Inactive | 0 | < 4 |  |  |  | Composite Activity - Score (Hepatotoxicity [1]; Liver): Active |
| COc1cc([C@@H]2c3cc4c(cc3[C@@H](O[C@@H]3O[C@@H]5CO[C@@H](c6cccs6)O[C@H]5[C@H](O)[C@H]3O)[C@H]3COC(=O)[C@H]23)OCO4)cc(OC)c1O [TENIPOSIDE] |  |  | Inactive | 0 | < 4 | Inactive | 0 | < 4 | Inactive | 0 | < 4 | Inactive | 0 | < 4 | Inactive | 0 | < 4 | 0 | 0 | Inactive |  |
| CCOC(=O)[C@H](CCc1ccccc1)N[C@@H](C)C(=O)N1[C@H](C(=O)O)C[C@@H]2CCC[C@@H]21 |  |  | Inactive | 1.1 | >= 4 | Inactive | 0.8 | < 4 | Inactive | 0.5 | < 4 | Inactive | 0.5 | < 4 | Inactive | 1.4 | >= 4 | 0 | 0 | Inactive |  |
| CCOC(=O)[C@H](CCc1ccccc1)N[C@@H](C)C(=O)N1[C@H](C(=O)O)C[C@H]2CCCC[C@@H]21 [TRANDOLAPRIL] |  |  | Inactive | 0 | < 4 | Inactive | 7 | < 4 | Marginally Active | 10.5 | < 4 | Inactive | 0 | < 4 | Inactive | 0 | < 4 | 1 | 0 | Inactive |  |
